Values quoted from earlier work as cited in patent EP4484428A1, “CUCURBITURIL DERIVATIVES FOR RADIOLABELING, PROCESSES OF PRODUCTION AND USES THEREOF” (Université de Bourgogne, priority 2023, dated 2025).

System: (strept)avidin
Settings: biotin-(strept)avidin pair, association constant

O=C(O)CCCC[C@@H]1SC[C@@H]2NC(=O)N[C@@H]21 [biotin]
affinity (K): 10^15 M^-1
